Here are results for eleven compounds from ChEMBL document CHEMBL3286293, “Optimization of GPR40 Agonists for Type 2 Diabetes” (ACS Med Chem Lett, 2014).

Data set [1] is described as follows: Volume of distribution at steady state in rat. Type of data set: ADME, organism-based. Particulars: in vivo, read-out: Vdss.
Data set [2] deals with T1, Free fatty acid receptor 1 (Homo sapiens, UniProt O14842). Kind of data set: Agonist activity at human GPR40 expressed in CHO cells by aequorin assay. It counts as cell-based.
Data set [3] can be described thus: Oral bioavailability in rat at 2 mg/kg. It counts as ADME, organism-based. Particulars: in vivo.
The target in data set [4] is T1, Free fatty acid receptor 1. As to the kind of experiment: Agonist activity at human GPR40 expressed in mouse A9 cells by inositol phosphate accumulation assay. It counts as functional, cell-based.
A short description of data set [5]: Mean residence time in rat. It counts as ADME, organism-based. Particulars: in vivo.
Data set [6] can be described thus: Half life in dog. It counts as ADME, organism-based, Canis lupus familiaris. Particulars: in vivo.
The subject of another data set is Plasma. As to the kind of experiment: […] in mouse plasma at 1 mg/kg, po. It counts as ADME, organism-based. Details: dose 1 mg/kg, route oral. Particulars: in vivo.
A short description of data set [7]: Ratio of drug level in brain to plasma in rat at 5 mg/kg, po after 3 hrs. Type of data set: ADME, organism-based. The arrangement: dose 5 mg/kg, route oral. Particulars: brain and plasma, read-out: BPR.
Data set [8] in a line: Oral bioavailability in dog at 2 mg/kg. It counts as ADME, organism-based, Canis lupus familiaris. Particulars: in vivo.
For a further data set, the system named is Islets of langerhans. As to the kind of experiment: Induction of insulin secretion in human GPR40 knock-in mouse pancreatic islets.
The target of data set [9] is Voltage-gated inwardly rectifying potassium channel KCNH2 (Homo sapiens, UniProt Q12809). As to the kind of experiment: Inhibition of human ERG.
The subject of data set [10] is Mus musculus. As to the kind of experiment: Antidiabetic activity in human GPR40 knock-in mouse assessed as reduction in glucose AUC at 10 mg/kg, po administered via gavage 1 hr before glucose challenge by oral glucose tolerance test. It counts as functional.
The nature of data set [11]: Inhibition of CYP450 (unknown origin). It counts as ADME. Particulars: human.
Data set [12] can be described thus: Half life in rat. It counts as ADME, organism-based. The conditions noted are these: in vivo.
The nature of data set [13]: Induction of CYP450 (unknown origin). The conditions noted are these: human. Type of data set: ADME.
Data set [14] can be described thus: Plasma concentration in mouse at 1 mg/kg, po measured for 4 hrs. It counts as ADME, organism-based. The arrangement: dose 1 mg/kg, route oral.
Data set [15] can be described thus: Volume of distribution at steady state in dog. It counts as ADME, organism-based, Canis lupus familiaris. The conditions noted are these: in vivo, read-out: Vdss.
For data set [16], the system named is Mus musculus. As to the kind of experiment: Antidiabetic activity in human GPR40 knock-in mouse assessed as reduction in blood glucose level at 10 mg/kg, po administered via gavage 1 hr before glucose challenge by oral glucose tolerance test. Type of data set: functional, organism-based. Details: dose 10 mg/kg.
Data set [17] is described as follows: Volume of distribution at steady state in cynomolgus monkey. It counts as ADME, organism-based, Macaca fascicularis. Particulars: in vivo, read-out: Vdss.
Data set [18] in a line: Oral bioavailability in cynomolgus monkey at 2 mg/kg. Particulars: in vivo. It counts as ADME, organism-based, Macaca fascicularis.
A short description of data set [19]: Half life in cynomolgus monkey. It counts as ADME, organism-based, Macaca fascicularis. Particulars: in vivo.
Data set [20] can be described thus: Clearance in rat at 0.5 mg/kg, iv. It counts as ADME, organism-based. Details: dose 0.5 mg/kg, route intravenous. The conditions noted are these: in vivo.

A word on the EC50: it is the concentration at which the effect is half-maximal. In general, bioavailability refers to dose-corrected exposure relative to a reference, in per cent. Broadly, the MRT is a mean duration of stay, worked out from the concentration-time curve. Broadly, the half-life is the time in which the quantity being followed falls by half. As usually defined, the inhibition in vivo is the percentage by which the read-out fell short of the control. The clearance is the rate of elimination divided by the concentration.

SMILES strings stand for the structures. Calls of active or inactive are those of the source. The calls are words filed in the database; no cut-off is given here.

T1 sequence (O14842 whole entry): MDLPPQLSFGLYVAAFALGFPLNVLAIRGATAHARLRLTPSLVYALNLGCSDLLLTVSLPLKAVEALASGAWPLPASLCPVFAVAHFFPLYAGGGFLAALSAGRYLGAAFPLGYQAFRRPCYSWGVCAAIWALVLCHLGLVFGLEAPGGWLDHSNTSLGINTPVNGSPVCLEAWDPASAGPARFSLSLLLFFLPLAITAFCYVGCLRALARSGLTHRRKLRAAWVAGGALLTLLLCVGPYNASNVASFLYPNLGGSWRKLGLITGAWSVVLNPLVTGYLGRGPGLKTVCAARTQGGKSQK
Voltage-gated inwardly rectifying potassium channel KCNH2, sequence (Q12809 whole entry): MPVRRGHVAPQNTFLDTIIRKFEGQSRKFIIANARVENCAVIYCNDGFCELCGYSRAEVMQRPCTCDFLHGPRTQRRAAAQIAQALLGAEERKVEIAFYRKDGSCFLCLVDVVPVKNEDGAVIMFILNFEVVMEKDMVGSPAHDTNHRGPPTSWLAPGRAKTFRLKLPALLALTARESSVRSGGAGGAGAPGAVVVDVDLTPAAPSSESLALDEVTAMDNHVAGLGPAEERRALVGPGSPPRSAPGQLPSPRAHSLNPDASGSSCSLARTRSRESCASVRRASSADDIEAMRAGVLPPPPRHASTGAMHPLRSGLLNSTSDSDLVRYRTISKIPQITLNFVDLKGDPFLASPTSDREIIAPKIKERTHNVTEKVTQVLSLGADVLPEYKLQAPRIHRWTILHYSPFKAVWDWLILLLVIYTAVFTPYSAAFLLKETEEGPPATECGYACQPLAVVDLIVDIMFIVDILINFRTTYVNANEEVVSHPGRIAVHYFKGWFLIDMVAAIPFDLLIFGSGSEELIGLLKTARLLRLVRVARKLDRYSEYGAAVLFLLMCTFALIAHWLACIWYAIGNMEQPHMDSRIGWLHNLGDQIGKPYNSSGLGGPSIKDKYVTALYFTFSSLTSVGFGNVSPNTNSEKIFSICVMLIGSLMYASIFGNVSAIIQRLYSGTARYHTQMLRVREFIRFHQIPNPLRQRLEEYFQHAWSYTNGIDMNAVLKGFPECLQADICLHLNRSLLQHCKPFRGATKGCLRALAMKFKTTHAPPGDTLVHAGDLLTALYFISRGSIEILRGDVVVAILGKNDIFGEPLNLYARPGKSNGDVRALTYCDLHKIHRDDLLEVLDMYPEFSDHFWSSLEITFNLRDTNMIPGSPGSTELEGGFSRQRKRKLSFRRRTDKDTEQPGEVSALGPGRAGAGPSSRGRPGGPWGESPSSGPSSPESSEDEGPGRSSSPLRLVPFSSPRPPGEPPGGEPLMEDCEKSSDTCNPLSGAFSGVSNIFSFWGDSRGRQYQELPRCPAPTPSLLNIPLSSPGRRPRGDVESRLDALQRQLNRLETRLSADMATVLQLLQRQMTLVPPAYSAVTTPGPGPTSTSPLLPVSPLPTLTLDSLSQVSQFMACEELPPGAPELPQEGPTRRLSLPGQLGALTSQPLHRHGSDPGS

As to `Cc1cc(Cl)ccc1-c1cccc(COc2ccc([C@H](CC(=O)O)c3ncnn3C)cc2)c1`, the Vd in data set [1] turned out to be 3.5 L/kg. Also, the half-maximal effective concentration (EC50) in [2] came out at 33 nM; in [4], 11 nM. The same compound registered a bioavailability in data set [3] of 18%. This compound also had an MRT in data set [5] of 2.5 h.
On to `Cc1nc(-c2ccc(C(F)(F)F)cc2)sc1COc1ccc([C@H](CC(=O)O)c2cnco2)cc1`, for which the EC50 amounted to 57 nM in data set [2] and 9 nM in [4].
Consider `Cc1nc(-c2ccc(C(F)(F)F)cc2)sc1COc1ccc([C@H](CC(=O)O)c2nccn2C)cc1`, for which, in data set [1], the Vd amounted to 0.64 L/kg. The 50% effective concentration (EC50) came out at 73 nM in data set [2] and 16 nM in data set [4]. The MRT in data set [5] is 3.7 h.
Regarding `Cc1nc(-c2ccc(C(F)(F)F)cc2)sc1COc1ccc([C@H](CC(=O)O)c2ccon2)cc1`, the Vd in data set [1] came to 0.68 L/kg; in data set [15], 0.6 L/kg; in data set [17] it was 0.35 L/kg. Also, the half-life in [6] is 5.6 h; in data set [12], 5.3 h; in [19], 14 h. The “Cp(f)” value in the data set with Plasma came to 8 nM. For the same compound, the Kp at 3 h in [7] worked out at 0.02. The EC50 in [2] is 36 nM; in the data set on Islets of langerhans, 55 nM; in data set [4], 3.6 nM. Besides, the bioavailability in [3] was 77%; in data set [8], 100%; in data set [18] it was 65%. The “inhibition (INH)” value in data set [9] and in data set [11] was “Not Active” each time. For the same compound, the inhibition in vivo at 10 mg/kg in the data set on Mus musculus [10] amounted to 19%. Further, the Activity result in data set [13] was “Not Active”. In data set [14], this compound returned a concentration at 4 h of 2000 nM. The inhibition entry in the data set with Mus musculus [16] was “Active”.
As for `Cc1nc(-c2ccc(C(F)(F)F)cc2)sc1COc1ccc([C@H](CC(=O)O)c2ncco2)cc1`, the EC50 in data set [2] was 69 nM.
Take `Cc1nc(-c2ccc(C(F)(F)F)cc2)sc1COc1ccc([C@H](CC(=O)O)c2ncnn2C)cc1`: the Vd in [1] was determined as 1.5 L/kg. This compound also yielded an EC50 in data set [2] of 65 nM. For the same compound, in data set [5], the MRT came out at 3.6 h.
Regarding `CC#C[C@@H](CC(=O)O)c1ccc(OCc2cccc(-c3ccc(C(F)(F)F)cc3)c2)cc1`, the Vd in data set [1] was found to be 0.58 L/kg. This compound yielded a bioavailability in data set [3] of 84%. This compound also returned a mean residence time MRT in data set [5] of 10 h.
In the case of `Cc1cc(Cl)ccc1-c1cccc(COc2ccc([C@H](CC(=O)O)c3nccn3C)cc2)c1`, the Vd in data set [1] came out at 0.73 L/kg. Moreover, the results for the concentration for a half-maximal effect (EC50) in data set [2] and in [4] were 33 nM and 7.6 nM, respectively. This compound also registered a bioavailability in data set [3] of 48%. Also, the MRT in data set [5] was determined as 2.4 h. In data set [20], this compound showed a clearance of 5.17 mL/min/kg.
`Cc1nc(-c2ccc(C(F)(F)F)cc2)sc1COc1ccc([C@H](CC(=O)O)c2nnnn2C)cc1`: in [1], the Vd was found to be 3.2 L/kg. In addition, the 50% effective concentration (EC50) in data set [2] was found to be 41 nM; in [4], 3.8 nM. Moreover, the bioavailability in [3] was 6.7%. The compound further returned a mean residence time MRT in data set [5] of 0.74 h.
Turning to `Cc1cc(Cl)ccc1-c1cccc(COc2ccc([C@H](CC(=O)O)c3nnnn3C)cc2)c1`, in data set [1], the Vd was found to be 14.3 L/kg. Also, the figures for the 50% effective concentration (EC50) in [2] and in [4] were 12 nM and 1.3 nM, respectively. Besides, in data set [3], the bioavailability turned out to be 53%. Further, the mean residence time (MRT) in [5] amounted to 5.2 h.
`CC#C[C@@H](CC(=O)O)c1ccc(OCc2cccc(-c3ccc(Cl)cc3C)c2)cc1` had an EC50 in data set [2] of 36 nM.
